Data reported in PMC10709440, “High-throughput ligand profile characterization in novel cell lines expressing seven heterologous insect olfactory receptors for the detection of volatile plant biomarkers” (Scientific Reports, 2023).
Like-named read-outs stand apart in the source and are kept apart here.

Legend:
Drosophila OR10a = target: T1, Drosophila OR10a (Drosophila melanogaster, UniProt Q9VYZ1); experiment: Calcium ion fluorescence (GCaMP6) assay, OR10a stable HEK293 cell line; type: cell-based
T1 construct: expressed in transfected cells
T1 sequence (Q9VYZ1 1-406): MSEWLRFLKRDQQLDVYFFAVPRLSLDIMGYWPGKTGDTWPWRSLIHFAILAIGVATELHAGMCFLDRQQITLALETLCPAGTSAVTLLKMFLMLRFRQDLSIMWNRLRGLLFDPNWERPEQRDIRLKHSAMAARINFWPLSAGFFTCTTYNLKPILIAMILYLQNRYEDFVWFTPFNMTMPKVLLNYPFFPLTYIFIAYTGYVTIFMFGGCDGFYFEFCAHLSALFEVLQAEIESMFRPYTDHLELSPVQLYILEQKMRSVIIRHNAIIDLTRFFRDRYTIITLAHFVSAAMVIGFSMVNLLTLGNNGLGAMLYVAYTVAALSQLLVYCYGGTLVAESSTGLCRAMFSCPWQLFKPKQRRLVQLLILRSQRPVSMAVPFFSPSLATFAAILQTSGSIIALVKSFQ
T1 sequence (Q9VNB5 1-486 partner): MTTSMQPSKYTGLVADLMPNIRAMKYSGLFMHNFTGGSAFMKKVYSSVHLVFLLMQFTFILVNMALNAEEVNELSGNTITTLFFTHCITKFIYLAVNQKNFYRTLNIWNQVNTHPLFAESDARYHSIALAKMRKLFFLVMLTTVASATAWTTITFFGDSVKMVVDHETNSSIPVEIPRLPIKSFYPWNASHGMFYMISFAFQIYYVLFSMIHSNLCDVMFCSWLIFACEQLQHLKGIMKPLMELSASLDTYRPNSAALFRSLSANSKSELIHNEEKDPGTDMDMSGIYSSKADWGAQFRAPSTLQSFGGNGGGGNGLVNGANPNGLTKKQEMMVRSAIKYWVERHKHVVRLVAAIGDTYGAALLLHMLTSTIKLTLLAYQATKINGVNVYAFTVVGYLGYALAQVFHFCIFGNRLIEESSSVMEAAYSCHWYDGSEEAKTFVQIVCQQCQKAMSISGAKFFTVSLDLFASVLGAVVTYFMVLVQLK
Outline: (§1)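 HEK293 lines stably expressing each Drosophila OR with GCaMP6, doxycycline-induced (1 μg/mL) 48 or 72 h. Fluorescence recorded 5 s baseline then 30 s after VOC injection at pH 7.3; ΔF=(FMAX−F0)/F0, normalized to 50 µM VUAA1 response per line, triplicate wells averaged; concentration series 0.01–100 μM.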

Drosophila OR98a = target: T2, Drosophila OR98a (Drosophila melanogaster, UniProt Q9VAZ3); experiment: Calcium ion fluorescence (GCaMP6) assay, OR98a stable HEK293 cell line; type: cell-based; conditions: for Average response: average of biological replicates, fraction of VUAA1 response
T2 construct: expressed in transfected cells
T2 sequence (Q9VAZ3 1-397): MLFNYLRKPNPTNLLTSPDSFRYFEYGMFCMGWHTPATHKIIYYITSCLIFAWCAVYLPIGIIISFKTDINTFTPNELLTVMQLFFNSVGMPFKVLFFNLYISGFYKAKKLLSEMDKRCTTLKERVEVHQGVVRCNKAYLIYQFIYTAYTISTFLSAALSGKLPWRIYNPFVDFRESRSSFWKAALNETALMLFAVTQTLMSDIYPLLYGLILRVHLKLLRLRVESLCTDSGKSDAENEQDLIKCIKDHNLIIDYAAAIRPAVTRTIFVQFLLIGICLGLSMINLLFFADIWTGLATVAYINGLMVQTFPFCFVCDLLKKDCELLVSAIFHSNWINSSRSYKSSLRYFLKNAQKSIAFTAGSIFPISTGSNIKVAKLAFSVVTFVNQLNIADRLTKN
T2 sequence (Q9VNB5 1-486 partner): T1 sequence (Q9VNB5 1-486 partner)
Outline: as §1

[1] = HEK293, read-out: OR10a response (VUAA1-normalized response), VOC concentration 1 μM
[2] = HEK293, read-out: OR10a response (VUAA1-normalized response), VOC concentration 10 μM
[3] = HEK293, read-out: OR10a response (VUAA1-normalized response), VOC concentration 100 μM
[4] = concentration 1, normalized fluorescence change, values below 0.05 threshold given as 0
[5] = concentration 10, normalized fluorescence change, values below 0.05 threshold given as 0
[6] = concentration 100, normalized fluorescence change, values below 0.05 threshold given as 0
[7] = HEK293, read-out: Average response
[8] = HEK293, read-out: OR98a response (VUAA1-normalized response)
[9] = HEK293, 1 μM VOC, 50 μM VUAA1 = 1, responses not exceeding 0.05 considered 0, read-out: OR10a Average response (VUAA1-normalized)
[10] = HEK293, 10 μM VOC, 50 μM VUAA1 = 1, responses not exceeding 0.05 considered 0, read-out: OR10a Average response (VUAA1-normalized)
[11] = HEK293, 100 μM VOC, 50 μM VUAA1 = 1, responses not exceeding 0.05 considered 0, read-out: OR10a Average response (VUAA1-normalized)
[12] = ligand concentration 1 (unit not given), threshold 0.05, below shown as 0
[13] = ligand concentration 10 (unit not given), threshold 0.05, below shown as 0
[14] = ligand concentration 100 (unit not given), threshold 0.05, below shown as 0
[15] = 100 µM, OR10a clone G5, single plate 2019.12.05
[16] = ligand concentration 10 (unit not given), 0.05 threshold, values below shown as 0
[17] = ligand concentration 100 (unit not given), 0.05 threshold, values below shown as 0
[18] = HEK293, read-out: OR98a Average response (VUAA1-normalized)
[19] = 1 μM VOC, 50 μM VUAA1 = 1, responses not exceeding 0.05 considered 0
[20] = 10 μM VOC, 50 μM VUAA1 = 1, responses not exceeding 0.05 considered 0
[21] = 100 μM VOC, 50 μM VUAA1 = 1, responses not exceeding 0.05 considered 0

Compound	activation at 1 µM (Drosophila OR10a; [1]) [%]	activation at 10 µM (Drosophila OR10a; [2]) [%]	activation at 100 µM (Drosophila OR10a; [3]) [%]	activation at 1 µM (Drosophila OR98a; [7]) [%]	activation at 10 µM (Drosophila OR98a; [7]) [%]	activation at 100 µM (Drosophila OR98a; [7]) [%]	activation at 1 µM (Drosophila OR98a; [8]) [%]	activation at 10 µM (Drosophila OR98a; [8]) [%]	activation at 100 µM (Drosophila OR98a; [8]) [%]	DF norm AVERAGE OR98a (Drosophila OR98a; [4])	DF norm AVERAGE OR98a (Drosophila OR98a; [5])	DF norm AVERAGE OR98a (Drosophila OR98a; [6])	activation at 1 µM (Drosophila OR10a; [9]) [%]	activation at 10 µM (Drosophila OR10a; [10]) [%]	activation at 100 µM (Drosophila OR10a; [11]) [%]	other results
C=C1CC[C@H]2O[C@]2(C)CC[C@@H]2[C@@H]1CC2(C)C [(-)-caryophyllene oxide]	0	0	0	0	4	0	0	0	0	0	0	0				activation at 1 µM (Drosophila OR10a; HEK293, read-out: OR10a Average response (VUAA1-normalized), 1 μM VOC, 50 μM VUAA1 = 1, responses not exceeding 0.05 considered 0): 0%; activation at 10 µM (Drosophila OR10a; HEK293, read-out: OR10a Average response (VUAA1-normalized), 10 μM VOC, 50 μM VUAA1 = 1, responses not exceeding 0.05 considered 0): 0%; activation at 100 µM (Drosophila OR10a; HEK293, read-out: OR10a Average response (VUAA1-normalized), 100 μM VOC, 50 μM VUAA1 = 1, responses not exceeding 0.05 considered 0): 0%; DF norm AVERAGE OR10a (Drosophila OR10a; [4]): 0; DF norm AVERAGE OR10a (Drosophila OR10a; [5]): 0; DF norm AVERAGE OR10a (Drosophila OR10a; [6]): 0
CCCCCCCCC=O [nonanal]				0	0	5.5							0	3	0	OR10a response (VUAA1-normalized) at 1 μM (Drosophila OR10a; OR10a cell line, VOC concentration 1 μM): 0.00; OR10a response (VUAA1-normalized) at 10 μM (Drosophila OR10a; OR10a cell line, VOC concentration 10 μM): 0.00; OR10a response (VUAA1-normalized) at 100 μM (Drosophila OR10a; OR10a cell line, VOC concentration 100 μM): 0.00; DF norm AVERAGE OR10a (Drosophila OR10a; [12]): 0; DF norm AVERAGE OR10a (Drosophila OR10a; [13]): 0; DF norm AVERAGE OR10a (Drosophila OR10a; [14]): 0; OR98a response (VUAA1-normalized) at 1 μM (Drosophila OR98a; OR98a cell line, VOC concentration 1 μM): 0.00; OR98a response (VUAA1-normalized) at 10 μM (Drosophila OR98a; OR98a cell line, VOC concentration 10 μM): 0.00; OR98a response (VUAA1-normalized) at 100 μM (Drosophila OR98a; OR98a cell line, VOC concentration 100 μM): 0.055; DF norm AVERAGE OR98a (Drosophila OR98a; [12]): 0; DF norm AVERAGE OR98a (Drosophila OR98a; [13]): 0; DF norm AVERAGE OR98a (Drosophila OR98a; [14]): 0.05502
CCCC(=O)OCC [ethyl butyrate]	0	0	0	3.54	0	6.6	0	0	6.6				0	2.38	2.76	DF norm AVERAGE OR10a (Drosophila OR10a; [12]): 0; DF norm AVERAGE OR10a (Drosophila OR10a; [13]): 0; DF norm AVERAGE OR10a (Drosophila OR10a; [14]): 0; DF norm AVERAGE OR98a (Drosophila OR98a; [12]): 0; DF norm AVERAGE OR98a (Drosophila OR98a; [13]): 0; DF norm AVERAGE OR98a (Drosophila OR98a; [14]): 0.06596
CC/C=C\CCOC(C)=O [z3-hexenyl acetate]				0	1.43	10							14	0	0	DF norm, all technical replicates (Drosophila OR10a; [15]): 0; DF norm, outlier technical replicates removed (Drosophila OR10a; [15]): 0; DF, outlier technical replicates removed (Drosophila OR10a; [15]): 0; DF, all technical replicates (Drosophila OR10a; 100 µM, OR10a clone G5, single plate 2019.12.05, xc+0.1%DMSO): 0; DF norm AVERAGE OR10a (Drosophila OR10a; ligand concentration 1 (unit not given), […]): 0.1361; DF norm AVERAGE OR10a (Drosophila OR10a; [16]): 0; DF norm AVERAGE OR10a (Drosophila OR10a; [17]): 0; activation at 1 µM (Drosophila OR98a; [18]): 0%; activation at 10 µM (Drosophila OR98a; [18]): 1%; activation at 100 µM (Drosophila OR98a; [18]): 10%; DF norm AVERAGE OR98a (Drosophila OR98a; ligand concentration 1 (unit not given), 0.05 threshold, values below shown as 0): 0; DF norm AVERAGE OR98a (Drosophila OR98a; [16]): 0; DF norm AVERAGE OR98a (Drosophila OR98a; [17]): 0.1048
(+)-beta-cedrene										0.08554	0.05985	0.06078				DF norm AVERAGE OR10a (Drosophila OR10a): 0; OR10a Average response (VUAA1-normalized) (Drosophila OR10a; [19]): 0.0218; OR10a Average response (VUAA1-normalized) (Drosophila OR10a; [20]): 0.0187; OR10a Average response (VUAA1-normalized) (Drosophila OR10a; [21]): 0.00; OR10a response (VUAA1-normalized response) (Drosophila OR10a; VOC concentration 1 μM): 0.00; OR10a response (VUAA1-normalized response) (Drosophila OR10a; VOC concentration 10 μM): 0.00; OR10a response (VUAA1-normalized response) (Drosophila OR10a; VOC concentration 100 μM): 0.00; OR98a response (VUAA1-normalized response) (Drosophila OR98a; VOC concentration 1 μM): 0.0855; OR98a response (VUAA1-normalized response) (Drosophila OR98a; VOC concentration 10 μM): 0.06; OR98a response (VUAA1-normalized response) (Drosophila OR98a; VOC concentration 100 μM): 0.06; Average response (Drosophila OR98a; cc. 1 µM, OR98a cell line): 0.0855; Average response (Drosophila OR98a; cc. 10 µM, OR98a cell line): 0.06; Average response (Drosophila OR98a; cc. 100 µM, OR98a cell line): 0.06
C=C(C)[C@H]1CC=C(C)CC1 [(R)-(+)-limonene]										0	0	0				OR10a Average response (VUAA1-normalized) (Drosophila OR10a; [19]): 0.00; OR10a Average response (VUAA1-normalized) (Drosophila OR10a; [20]): 0.12; OR10a Average response (VUAA1-normalized) (Drosophila OR10a; [21]): 0.0152; OR10a response (VUAA1-normalized response) (Drosophila OR10a; VOC concentration 1 μM): 0.00; OR10a response (VUAA1-normalized response) (Drosophila OR10a; VOC concentration 10 μM): 0.12; OR10a response (VUAA1-normalized response) (Drosophila OR10a; VOC concentration 100 μM): 0.00; OR98a response (VUAA1-normalized response) (Drosophila OR98a; VOC concentration 1 μM): 0.00; OR98a response (VUAA1-normalized response) (Drosophila OR98a; VOC concentration 10 μM): 0.00; OR98a response (VUAA1-normalized response) (Drosophila OR98a; VOC concentration 100 μM): 0.00; Average response (Drosophila OR98a; cc. 1 µM, OR98a cell line): 0.03; Average response (Drosophila OR98a; cc. 10 µM, OR98a cell line): 0.00; Average response (Drosophila OR98a; cc. 100 µM, OR98a cell line): 0.03
Cc1cccc(O)c1 [3-methylphenol]	9	6	13	4.63	4.61	6	0	0	6	0	0	0.05828	9	6	13	
C=C1CC/C=C(\C)CC[C@@H]2[C@@H]1CC2(C)C [(-)-trans-caryophyllene]	14	20	6.61	7	6	6	7	6	6	0.06975	0.06201	0.05748	14	20	6.61	
